# Data published in publication PMC6805867, “Amphiphilic Triazine Polymer Derivatives as Antibacterial And Anti-atopic Agents in Mice Model” (Scientific Reports, 2019).
# Tests used:
# [1] = test system: β-hexosaminidase release from RBL-2H3 cells; assay: β-hexosaminidase release assay; assay type: cell-based, rat; details: 500 μg/mL, 12 h treatment, A23187 1 μM 30 min, dose-dependent
# Method: The β-hexosaminidase assay was performed as described previously with some modifications. Cells were treated with different concentrations of samples for 12 h. The treated cells were washed two times with PBS and stimulated with calcium ionophore A23187 (1 μM, final concentration) at 37 °C for 30 min. Aliquots (50 μL) of the supernatants were incubated with 50 μL of 1 mM 4-nitrophenyl-N-acetyl-β-D-glucosaminide in 0.1 M sodium citrate (pH 4.5) at 37 °C for 1 h. At the end of incubation, 250 μL of carbonate buffer containing 0.1 M Na2CO3 and 0.1 M NaHCO3 (pH 10) was added, and then the absorbance due to the formation of p-nitrophenol was measured at 410 nm. The supernatant from the non-stimulated cells was used as a blank while the supernatant from the stimulated cells with calcium ionophore A23187 alone was used as a control. The β-hexosaminidase release levels were calculated as a percentage compared to that of control: β-hexosaminidase release (%) = (absorbance of tested sample− absorbance of blank)/(absorbance of control-absorbance of blank) × 100.
# (§1) Effect of TZP3 and TZP5 on TNF-α suppression
# (§2) Therefore, the dimer TZP3 and trimer TZP5 were probed for their potential for inhibiting the TNF-α induced from RBL-2H3 cells in in vitro method.
# (§3) Calcium ionophore A23187 and PMA induced the TNF-α secretion in RBL-2H3 cells, on the contrary, treatment of which with TZP3 and TZP5
# Figure S1. […]
# [2] = test system: TNF-α in RBL-2H3 cells; assay: Production of TNF-α induced by A23187 and PMA; assay type: cell-based, rat; details: 1 μM A23187 and 80 nM PMA, 4 h
# Method: The inhibition of TNF-α release induced by A23187 and PMA from the RBL-2H3 cells was assessed by using a previously reported method. The RBL-2H3 cells (2 × 10^5 cells/well) were cultured with 1 μM A23187 and 80 nM PMA for 4 h at 37 °C, after exposure to 0, 15.625, 31.25, 62.5, or 125 μg/mL 30 min of the TZP3 and TZP5. Next, the cells were used for RT-PCR.
# as §1, §2, §3
# Figure S1. Inhibitory effects of the TZP3 and TZP5 on A23187 and PMA-induced TNF-α induced from RBL-2H3 cells. […]
# [3] = test system: Methicillin-resistant Staphylococcus aureus (MRSA) CCARM 3095; assay type: cell-based; details: broth microdilution, 37 °C, 18–22 h
# Method: (§4) The bacterial strains employed in the experiment were Escherichia coli (KCTC 1682), Pseudomonas aeruginosa (KCTC 1637), Bacillus subtilis (KCTC 3068), Staphylococcus aureus (KCTC 1621), three methicillin-resistant Staphylococcus aureus (CCARM 3089, 3090 and 3095), two multidrug-resistant Pseudomonas aeruginosa (CCARM 2095 and 2109) and vancomycin-resistant Enterococcus faecium (ATCC 51559). The antimicrobial activities of polymers were determined by the broth microdilution method, and the procedures were used as previously reported. Briefly, bacteria grown to mid-logarithmic phase in LB broth were diluted to 2 × 10^6 CFU/mL in 1% peptone and added to serial two-fold dilutions of different polymers ranging from 1 to 64 μg/mL. The plates were incubated in a shaking incubator at 37 °C for 18–22 h. The minimum inhibitory concentration (MIC) was determined by confirming the absence of bacterial growth both visually and spectrophotometrically by OD600 readings taken by a microplate ELISA reader (Molecular Devices, Sunnyvale, CA, USA). All measurements were performed three times.
# [4] = test system: Multidrug-resistant Pseudomonas aeruginosa (MDRPA) CCARM 2095; assay type: cell-based; details: broth microdilution, 37 °C, 18–22 h
# Method: as §4
# [5] = test system: Methicillin-resistant Staphylococcus aureus (MRSA) CCARM 3090; assay type: cell-based; details: broth microdilution, 37 °C, 18–22 h
# Method: as §4
# [6] = test system: Multidrug-resistant Pseudomonas aeruginosa (MDRPA) CCARM 2109; assay type: cell-based; details: broth microdilution, 37 °C, 18–22 h
# Method: as §4
# [7] = test system: Methicillin-resistant Staphylococcus aureus (MRSA) CCARM 3089; assay type: cell-based; details: broth microdilution, 37 °C, 18–22 h
# Method: as §4
# [8] = test system: Staphylococcus aureus (KCTC 1621); assay: Antimicrobial activity, broth microdilution MIC; assay type: cell-based; details: 2 × 10^6 CFU/mL in 1% peptone, 37 °C, 18–22 h, 100% inhibition of growth, performed three times
# Method: as §4
# [9] = test system: Bacillus subtilis (KCTC 3068); assay: Antimicrobial activity, broth microdilution MIC; assay type: cell-based; details: 2 × 10^6 CFU/mL in 1% peptone, 37 °C, 18–22 h, 100% inhibition of growth, performed three times
# Method: as §4
# [10] = test system: Escherichia coli (KCTC 1682); assay: Antimicrobial activity, broth microdilution MIC; assay type: cell-based; details: 2 × 10^6 CFU/mL in 1% peptone, 37 °C, 18–22 h, 100% inhibition of growth, performed three times
# Method: as §4
# [11] = test system: Pseudomonas aeruginosa (KCTC 1637); assay: Antimicrobial activity, broth microdilution MIC; assay type: cell-based; details: 2 × 10^6 CFU/mL in 1% peptone, 37 °C, 18–22 h, 100% inhibition of growth, performed three times
# Method: as §4
Compound,inhibition of β-hexosaminidase release [1],TNF-α suppression ([2]; 15.6 μg/mL),TNF-α suppression ([2]; 31.2 μg/mL),TNF-α suppression ([2]; 62.5 μg/mL),TNF-α suppression ([2]; 125 μg/mL),MIC MRSA CCARM 3095 [3],MIC MDRPA CCARM 2095 [4],MIC MRSA CCARM 3090 [5],MIC MDRPA CCARM 2109 [6],MIC MRSA CCARM 3089 [7],MIC Staphylococcus aureus (KCTC 1621) [8],MIC Bacillus subtilis (KCTC 3068) [9],MIC Escherichia coli (KCTC 1682) [10],MIC Pseudomonas aeruginosa (KCTC 1637) [11]
NCCCN(CCCN)c1nc(N)nc(NCCNc2nc(Cl)nc(N(Cc3ccccc3)Cc3ccccc3)n2)n1 [TZP3],maximum inhibitory effects,~10%,~10%,approximately 70%,~90%,8 [13.5] µg/mL,8 [13.5] µg/mL,8 [13.5] µg/mL,8 [13.5] µg/mL,8 [13.5] µg/mL,4 [6.8] μg/mL,2 [3.4] μg/mL,4 [6.8] μg/mL,8 [13.5] μg/mL
NCCCN(CCCN)c1nc(Cl)nc(NCCNc2nc(NCCNc3nc(N)nc(NCCC(c4ccccc4)c4ccccc4)n3)nc(N(CCCN)CCCN)n2)n1 [TZP5],maximum inhibitory effects,didn’t show appreciable TNF-α suppressions,didn’t show appreciable TNF-α suppressions,dose-dependent manner,dose-dependent manner,4 [3] µg/mL,8 [6] µg/mL,4 [3] µg/mL,8 [6] µg/mL,4 [3] µg/mL,4 [3] μg/mL,2 [1.5] μg/mL,4 [3] μg/mL,4 [3] μg/mL
